Experimental data from publication PMC4710522, “A Novel Triazolopyridine-Based Spleen Tyrosine Kinase Inhibitor That Arrests Joint Inflammation” (PLoS ONE, 2016).
Like-named read-outs stand apart in the source and are kept apart here.

How the values were obtained:
CDK1_cyclinB_h = molecular target: T1, CDK1_cyclinB_h (Homo sapiens, UniProt P06493); experiment: SelectScreen kinase assay; type: biochemical; conditions: KM ATP
T1 construct: purchased Life Technologies (Invitrogen) SelectScreen, Z'-LYTE / Adapta
Method: (§1) Syk kinase mode of inhibition studies, including parameters described in Fig 1, were conducted on the LC3000 platform by Caliper Life Sciences (Hopkinton, MA) according to standard protocols developed by the supplier. […] Non-kinase enzyme assays and GPCR, ion channel, and transporter binding assays were run by CEREP (France). Non-GLP manual patch clamp hERG assays were run by ChanTest (Cleveland, Ohio). Vivid® Assay kits (Life Technologies) were used to measure the cytochrome P450 inhibition of the compound against CYP3A, CYP2C9, CYP2C19, CYP2D6, and CYP1A2, as described.
(§2) Kinase activity was measured using either the Z’-Lyte® or the Adapta® protocols as part of the SelectScreen™ profiling service offered at Life Technologies (Grand Island, NY). For the single point measurements (Part A), CC-509 was kept constant at 3 µM while ATP concentrations [ATP] used were at the KM for ATP (KM ATP) for that specific enyzme, at 10 or 100 µM ATP (10 ATP or 100 ATP, respectively), as indicated. Values expressed as percent control (% control) relative to DMSO-only wells (uninhibited, 100%).
(§3) Kinase activity was measured using either the Z’-Lyte® or the Adapta® protocols as part of the SelectScreen™ profiling service offered at Life Technologies (Grand Island, NY). […] Values expressed as percent control (% control) relative to DMSO-only wells (uninhibited, 100%).

DYRK3_h = molecular target: T2, DYRK3_h (Homo sapiens, UniProt O43781); experiment: SelectScreen kinase assay; type: biochemical; conditions: KM ATP
T2 construct: purchased Life Technologies (Invitrogen) SelectScreen, Z'-LYTE / Adapta
Method: as §1, §2, §3

DYRK4_h = molecular target: T3, DYRK4_h (Homo sapiens, UniProt Q9NR20); experiment: SelectScreen kinase assay; type: biochemical; conditions: KM ATP
T3 construct: purchased Life Technologies (Invitrogen) SelectScreen, Z'-LYTE / Adapta
T3 sequence (Q9NR20 whole entry): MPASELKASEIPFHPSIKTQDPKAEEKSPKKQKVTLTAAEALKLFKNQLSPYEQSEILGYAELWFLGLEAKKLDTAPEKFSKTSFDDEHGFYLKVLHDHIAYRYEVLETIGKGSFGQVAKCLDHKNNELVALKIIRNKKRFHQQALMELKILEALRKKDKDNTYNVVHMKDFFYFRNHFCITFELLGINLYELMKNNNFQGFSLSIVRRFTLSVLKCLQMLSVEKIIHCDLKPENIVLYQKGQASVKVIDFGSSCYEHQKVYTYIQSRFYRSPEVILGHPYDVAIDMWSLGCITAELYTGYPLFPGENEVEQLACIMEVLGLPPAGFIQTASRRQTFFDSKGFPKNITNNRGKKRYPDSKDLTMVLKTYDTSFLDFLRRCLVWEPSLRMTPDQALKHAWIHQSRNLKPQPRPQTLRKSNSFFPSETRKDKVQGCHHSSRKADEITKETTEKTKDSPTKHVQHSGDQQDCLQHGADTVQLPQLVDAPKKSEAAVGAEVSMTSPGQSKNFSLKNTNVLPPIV
Method: as §1, §2, §3

GRK2_h = molecular target: T4, GRK2_h (Homo sapiens, UniProt P25098); experiment: SelectScreen kinase assay; type: biochemical; conditions: KM ATP
T4 construct: purchased Life Technologies (Invitrogen) SelectScreen, Z'-LYTE / Adapta
T4 sequence (P25098 whole entry): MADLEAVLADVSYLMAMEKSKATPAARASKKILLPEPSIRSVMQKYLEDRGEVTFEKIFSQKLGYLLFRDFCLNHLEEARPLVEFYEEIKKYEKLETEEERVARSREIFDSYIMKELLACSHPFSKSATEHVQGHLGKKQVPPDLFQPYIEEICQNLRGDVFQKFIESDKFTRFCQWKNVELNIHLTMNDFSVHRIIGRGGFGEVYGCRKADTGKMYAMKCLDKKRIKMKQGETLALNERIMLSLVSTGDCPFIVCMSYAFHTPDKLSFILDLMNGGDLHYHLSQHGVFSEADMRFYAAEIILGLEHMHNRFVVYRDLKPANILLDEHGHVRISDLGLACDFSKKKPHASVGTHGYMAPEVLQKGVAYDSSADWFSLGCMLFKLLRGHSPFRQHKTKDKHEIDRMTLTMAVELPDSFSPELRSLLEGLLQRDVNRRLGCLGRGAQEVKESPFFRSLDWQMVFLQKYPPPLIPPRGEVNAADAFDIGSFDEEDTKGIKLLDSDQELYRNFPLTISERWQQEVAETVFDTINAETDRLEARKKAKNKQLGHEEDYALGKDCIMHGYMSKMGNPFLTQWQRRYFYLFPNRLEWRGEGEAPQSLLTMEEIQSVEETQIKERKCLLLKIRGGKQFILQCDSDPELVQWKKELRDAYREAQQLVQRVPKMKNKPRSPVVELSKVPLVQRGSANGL
Method: as §1, §2, §3

GRK3_h = molecular target: T5, GRK3_h (Homo sapiens, UniProt P35626); experiment: SelectScreen kinase assay; type: biochemical; conditions: KM ATP
T5 construct: purchased Life Technologies (Invitrogen) SelectScreen, Z'-LYTE / Adapta
T5 sequence (P35626 whole entry): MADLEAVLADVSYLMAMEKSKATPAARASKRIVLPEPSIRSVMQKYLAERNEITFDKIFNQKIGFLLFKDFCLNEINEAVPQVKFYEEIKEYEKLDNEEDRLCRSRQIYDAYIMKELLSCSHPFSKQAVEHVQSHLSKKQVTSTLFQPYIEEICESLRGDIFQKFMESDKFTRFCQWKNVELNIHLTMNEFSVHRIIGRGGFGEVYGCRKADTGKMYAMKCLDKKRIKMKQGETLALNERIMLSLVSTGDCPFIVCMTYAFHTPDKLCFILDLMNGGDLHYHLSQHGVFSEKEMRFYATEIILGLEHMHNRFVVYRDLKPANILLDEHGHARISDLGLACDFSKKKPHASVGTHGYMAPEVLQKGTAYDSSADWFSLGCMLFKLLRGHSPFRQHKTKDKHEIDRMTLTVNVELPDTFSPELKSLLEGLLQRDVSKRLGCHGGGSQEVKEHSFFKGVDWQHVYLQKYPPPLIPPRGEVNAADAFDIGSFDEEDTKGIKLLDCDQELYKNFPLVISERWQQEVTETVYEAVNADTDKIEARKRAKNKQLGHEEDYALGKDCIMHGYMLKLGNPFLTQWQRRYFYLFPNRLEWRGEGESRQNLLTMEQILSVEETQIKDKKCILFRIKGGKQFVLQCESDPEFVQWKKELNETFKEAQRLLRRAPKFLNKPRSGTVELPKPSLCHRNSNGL
Method: as §1, §2, §3

MAPKAP-K3_h = molecular target: T6, MAPKAP-K3_h (Homo sapiens, UniProt Q16644); experiment: SelectScreen kinase assay; type: biochemical; conditions: KM ATP
T6 construct: purchased Life Technologies (Invitrogen) SelectScreen, Z'-LYTE / Adapta
Method: as §1, §2, §3

PASK_h = molecular target: T7, PASK_h (Homo sapiens, UniProt Q96RG2); experiment: SelectScreen kinase assay; type: biochemical; conditions: KM ATP
T7 construct: purchased Life Technologies (Invitrogen) SelectScreen, Z'-LYTE / Adapta
T7 sequence (Q96RG2 whole entry): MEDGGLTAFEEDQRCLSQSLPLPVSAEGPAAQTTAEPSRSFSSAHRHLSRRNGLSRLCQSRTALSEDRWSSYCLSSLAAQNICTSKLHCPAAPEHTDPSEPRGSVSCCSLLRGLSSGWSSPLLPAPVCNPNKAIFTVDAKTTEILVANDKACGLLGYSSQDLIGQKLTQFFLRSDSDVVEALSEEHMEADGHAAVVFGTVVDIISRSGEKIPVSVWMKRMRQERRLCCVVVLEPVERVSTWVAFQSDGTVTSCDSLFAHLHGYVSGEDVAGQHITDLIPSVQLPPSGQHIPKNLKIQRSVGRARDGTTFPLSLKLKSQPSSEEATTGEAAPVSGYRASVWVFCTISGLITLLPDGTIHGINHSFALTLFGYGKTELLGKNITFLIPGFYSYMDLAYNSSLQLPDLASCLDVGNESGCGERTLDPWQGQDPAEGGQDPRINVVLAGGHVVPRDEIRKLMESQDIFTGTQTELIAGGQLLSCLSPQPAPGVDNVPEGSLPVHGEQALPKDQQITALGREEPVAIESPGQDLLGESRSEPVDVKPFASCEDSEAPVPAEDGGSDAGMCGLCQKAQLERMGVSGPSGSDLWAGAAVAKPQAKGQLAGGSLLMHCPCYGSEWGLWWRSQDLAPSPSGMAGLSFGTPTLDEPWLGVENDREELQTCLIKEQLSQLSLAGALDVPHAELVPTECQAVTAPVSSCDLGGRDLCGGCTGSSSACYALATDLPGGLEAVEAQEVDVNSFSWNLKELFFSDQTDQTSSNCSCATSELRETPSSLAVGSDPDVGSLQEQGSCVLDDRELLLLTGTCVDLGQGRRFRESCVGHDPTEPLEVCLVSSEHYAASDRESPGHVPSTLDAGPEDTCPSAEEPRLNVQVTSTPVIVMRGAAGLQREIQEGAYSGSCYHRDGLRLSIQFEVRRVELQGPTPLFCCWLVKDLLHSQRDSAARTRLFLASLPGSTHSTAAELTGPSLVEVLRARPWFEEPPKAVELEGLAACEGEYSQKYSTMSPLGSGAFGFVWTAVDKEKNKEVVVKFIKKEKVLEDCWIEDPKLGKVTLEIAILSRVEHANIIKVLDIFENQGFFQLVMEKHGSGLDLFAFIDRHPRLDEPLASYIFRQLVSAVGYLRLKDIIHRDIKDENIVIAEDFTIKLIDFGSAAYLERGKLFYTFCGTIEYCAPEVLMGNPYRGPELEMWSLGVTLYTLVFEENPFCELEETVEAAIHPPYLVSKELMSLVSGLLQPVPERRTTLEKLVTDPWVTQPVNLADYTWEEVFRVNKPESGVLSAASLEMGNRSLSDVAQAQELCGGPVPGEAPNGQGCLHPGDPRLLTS
Method: as §1, §2, §3

PKC-betaI_h = molecular target: T8, PKC-betaI_h (Homo sapiens, UniProt P05771); experiment: SelectScreen kinase assay; type: biochemical; conditions: KM ATP
T8 construct: purchased Life Technologies (Invitrogen) SelectScreen, Z'-LYTE / Adapta
T8 sequence (P05771 whole entry): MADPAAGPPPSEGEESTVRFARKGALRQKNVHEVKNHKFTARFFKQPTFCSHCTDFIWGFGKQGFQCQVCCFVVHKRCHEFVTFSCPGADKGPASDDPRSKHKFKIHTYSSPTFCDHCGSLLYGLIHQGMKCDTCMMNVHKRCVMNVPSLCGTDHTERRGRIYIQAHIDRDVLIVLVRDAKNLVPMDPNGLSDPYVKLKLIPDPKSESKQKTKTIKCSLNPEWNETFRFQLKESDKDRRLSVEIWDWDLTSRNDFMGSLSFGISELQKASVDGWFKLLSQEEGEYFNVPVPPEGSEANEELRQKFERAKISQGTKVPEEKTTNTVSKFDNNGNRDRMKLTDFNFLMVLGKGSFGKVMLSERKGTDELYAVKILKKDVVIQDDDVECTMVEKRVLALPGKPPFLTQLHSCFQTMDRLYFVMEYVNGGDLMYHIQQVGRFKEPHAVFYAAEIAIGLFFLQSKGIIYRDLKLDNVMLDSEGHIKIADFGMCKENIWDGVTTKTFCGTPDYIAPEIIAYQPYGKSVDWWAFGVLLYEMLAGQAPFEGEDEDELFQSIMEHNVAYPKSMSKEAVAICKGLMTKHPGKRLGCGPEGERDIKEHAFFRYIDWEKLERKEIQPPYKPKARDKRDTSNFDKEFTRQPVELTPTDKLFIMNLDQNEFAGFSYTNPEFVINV
Method: as §1, §2, §3

PKC-gamma_h = molecular target: T9, PKC-gamma_h (Homo sapiens, UniProt P05129); experiment: SelectScreen kinase assay; type: biochemical; conditions: KM ATP
T9 construct: purchased Life Technologies (Invitrogen) SelectScreen, Z'-LYTE / Adapta
Method: as §1, §2, §3

SGK2_h = molecular target: T10, SGK2_h (Homo sapiens, UniProt Q9HBY8); experiment: SelectScreen kinase assay; type: biochemical; conditions: KM ATP
T10 construct: purchased Life Technologies (Invitrogen) SelectScreen, Z'-LYTE / Adapta
Method: as §1, §2, §3

TSSK2_h = molecular target: T11, TSSK2_h (Homo sapiens, UniProt Q96PF2); experiment: SelectScreen kinase assay; type: biochemical; conditions: KM ATP
T11 construct: purchased Life Technologies (Invitrogen) SelectScreen, Z'-LYTE / Adapta
T11 sequence (Q96PF2 whole entry): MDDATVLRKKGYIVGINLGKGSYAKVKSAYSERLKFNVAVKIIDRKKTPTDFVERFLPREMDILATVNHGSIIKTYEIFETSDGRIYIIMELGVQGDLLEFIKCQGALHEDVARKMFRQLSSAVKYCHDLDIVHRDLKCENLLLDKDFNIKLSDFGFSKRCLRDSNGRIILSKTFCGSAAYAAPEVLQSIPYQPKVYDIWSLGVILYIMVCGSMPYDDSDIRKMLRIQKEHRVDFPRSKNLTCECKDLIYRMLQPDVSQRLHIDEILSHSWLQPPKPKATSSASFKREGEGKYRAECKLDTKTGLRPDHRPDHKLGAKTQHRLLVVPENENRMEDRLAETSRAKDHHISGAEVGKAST
Method: as §1, §2, §3

[1] = system: primary human eosinophils; experiment: primary human eosinophils, IL-3 stimulated MCP-1 secretion; type: cell-based
Method: Cells were purified from EDTA-treated human whole blood using Polymorphprep (VWR, Radnor, PA) according to the protocol provided by the supplier. Eosinophils were further purified using an Eosinophil Kit (Miltenyi, Auburn, CA) according to manufacturer’s instructions. Neutrophil and eosinophil cell pellets were incubated in phenol red-free RPMI (Life Technologies, Grand Island, NY) for 30 minutes, washed in Kreb’s Ringer buffer, and plated in 96-well white opaque plates (Perkin Elmer, Foster City, CA) for luminescence. Neutrophils were diluted with Kreb’s Ringer buffer containing luminol (200 μM final concentration, Sigma Chemicals, St. Louis, MO) and preincubated with CC-509 for 30 minutes at 37°C. Neutrophils were activated with 0.5 mg/mL final concentration of opsonized zymosan, incubated for 30 minutes at room temperature in the dark, and then read on an Envision 2104 Multilabel Reader (Perkin Elmer, Foster City, CA). Opsonized zymosan was prepared as follows: Zymosan A (Sigma Aldrich, St. Louis, MO) was boiled, washed, and resuspended to a final concentration of 20mg/ml in 150mM NaCl. […] For eosinophils, cells were stimulated with IL-3 (200 pM, R&D Systems, Minneapolis, MN) for 24 hours at which point supernatants were collected and assessed for MCP-1 (Mesoscale).

Jak2 = experiment: JAK2 cellular selectivity assay (HEL Irf1-β-lactamase cells); type: cell-based; conditions: for IC50: read-out: IC50, Jak2-dependent cellular system
Method: HEL Irf1-β-lactamase cells were harvested, plated in 384-well plates, and incubated with CC-509 at indicated concentrations for 16 hours in a tissue culture incubator. The cells were then treated with Live Blazer-FRET B/G Substrate solution (Life Technologies, Carlsbad, CA) for 6 hours at room temperature in the dark. Fluorescence readings at 460 nm and 530 nm were taken using the Flexstation II (Molecular Devices). Myeloid colony forming assays to assess Jak2 cellular activity were conducted at ReachBio (Seattle, WA).
For the TEL-Syk assay, the intensity values for the 700 and 800 channel were exported as text files in ActivityBase (IDBS, Guildford, UK) to derive the ratios that reflect kinase activity. For LAD2 experiments, enzyme activity values were exported as text files into ActivityBase to calculate “percent release” according to the formula: 100* supernatant OD405/ (supernatant OD405 + (pellet OD405*pellet dilution factor)). For the basophil and B-cells assays, flow cytometry data was exported from the FACS Array and processed using FloJo software package (TreeStar, Inc., Ashland, Oregon). For the JAK2 HEL and Ramos NFAT β-lactamase assays, the fluorescence values obtained at 460 nm and 530 nm were exported into ActivityBase to calculate response ratios. For the neutrophil, macrophage, KDR, and JAK1/3 assays, raw values were exported into ActivityBase to calculate percent inhibition. All IC50 calculations were generated using XLfit (IDBS, Guildford, UK) algorithm 205 within Excel. For PCA, the OD from the saline injected site was subtracted from the OD from the anti-DNP IgE injected site. Evans blue dye extravasation was expressed as mean ± SEM and % inhibition for the test article groups was normalized to the cromolyn positive control. For the CIA model paw measurements (left and right ankle diameter) were taken for each individual animal and averaged. The mean data from each group was plotted and either the AUC(day 11–18) or % inhibition on day 18 was calculated. Data is expressed as mean ± SEM of each group with n = 6–12. […]

## COc1cc(Nc2ncc(F)c(Nc3ccc4c(n3)NC(=O)C(C)(C)O4)n2)cc(OC)c1OC [R406, reference compound]
CDK1_cyclinB_h; 3 µM
  % control: 68%
DYRK3_h; 3 µM
  % control: 90%
DYRK4_h; 3 µM
  % control: 69%
GRK2_h; 3 µM
  % control: 99%
GRK3_h; 3 µM
  % control: 103%
MAPKAP-K3_h; 3 µM
  % control: 96%
PASK_h; 3 µM
  % control: 104%
PKC-betaI_h; 3 µM
  % control: 59%
PKC-gamma_h; 3 µM
  % control: 16%
SGK2_h; 3 µM
  % control: 92%
TSSK2_h; 3 µM
  % control: 96%
[1]
  IC50: 1410 ± 1730 nM
Jak2
  IC50: […]

## c1cc(CC2CCOCC2)n2nc(Nc3ccc4c(NC5CCOCC5)n[nH]c4c3)nc2c1 [CC-509, [3-(2H-3,4,5,6-tetrahydropyran-4-ylamino)(1H-indazol-6-yl)][5-(2H-3,4,5,6-tetrahydropyran-4-ylmethyl)(2H-1,2,4-triazolo[1,5-a]pyridin-2-yl)]amine]
CDK1_cyclinB_h; read-out: % control
  remaining activity at 3 µM: 82%
DYRK3_h; read-out: % control
  remaining activity at 3 µM: 80%
DYRK4_h; read-out: % control
  remaining activity at 3 µM: 97%
GRK2_h; read-out: % control
  remaining activity at 3 µM: 82%
GRK3_h; read-out: % control
  remaining activity at 3 µM: 98%
MAPKAP-K3_h; read-out: % control
  remaining activity at 3 µM: 88%
PASK_h; read-out: % control
  remaining activity at 3 µM: 100%
PKC-betaI_h; read-out: % control
  remaining activity at 3 µM: 92%
PKC-gamma_h; read-out: % control
  remaining activity at 3 µM: 45%
SGK2_h; read-out: % control
  remaining activity at 3 µM: 89%
TSSK2_h; read-out: % control
  remaining activity at 3 µM: 93%
[1]; Homo sapiens, Eosinophil
  IC50: 110 ± 50 nM
Jak2
  fold less potent than R406, Jak2 cellular: 1.7 fold
  IC50: 5450 ± 590 nM
